Laboratory results taken from patent publication US11602546B2, “Combination inhibiting MEIS proteins” (YEDÍTEPE ÜNÍVERSÍTESÍ, priority 2016, dated 2023).

How the values were obtained:
[1] = test system: Lin− cells obtained from the bone marrow / HSCs; assay: ex vivo mouse HSC proliferation (Lin− bone marrow cells, flow cytometry); format: cell-based; settings: dose dependent
Procedure: 4—Determining the effect of MEIS inhibitor on ex vivo HSC proliferation
Bone marrow isolation from mouse and HSC purification were performed. For this, following euthanasia of 8-12 week old mice with isoflurane, bone marrow cells were obtained from femur and tibia bones. Briefly, Lin−, Sca1+, c-Kit+, CD34low cells (long term HSCs) were obtained by being stained with cell line cocktail with biotin (anti-CD3, anti-CDS, anti-B220, anti-Mac-1, anti-Gr1, anti-Ter119; Stem Cell Technologies), and that was followed by streptavidin-PE/Cy5.5, anti-Sca-1-FITC, anti-KIT-APC, and anti-CD34-PE staining. HSC medium known as SCF medium was used in the culture of the isolated bone marrow cells. […]
HSC frequency and number: The Lin− cells obtained from the bone marrow were treated in the cell culture with MEIS inhibitors or DMSO for 10 days, and subsequently the number of hematopoietic cells (FIG. 4) and the percentage of HSCs (FIGS. 5 and 6) were determined. In order to determine the number of HSCs, the concerned surface antigens (Lin−, Sca1+, c-Kit+, CD34−) were stained with fluorochrome conjugated antibody as in the previous studies and then analyzed with flow cytometry (ER: C).

[2] = dose-dependent in vitro experiments (effective dose); format: cell-based
Procedure: The effective dose was determined to be 1 μM by means of the dose-dependent in vitro experiments.

[3] = test system: L929 murine fibroblastic cell line; assay: cytotoxic analyses, WST1, L929 cell line; format: cell-based; settings: L929 cells, 0, 1, 1 and 10 μM doses, 4 days
Procedure: 6—Cytotoxic Analyses of MEIS Inhibitors
L929 murine fibroblastic cell line was used for cytotoxic analyses of the MEIS inhibitors. The cells were seeded into a 96-well plate (Corning, 3799) at 2000 cells per well. The next day after seeding, the cells were treated by different doses by means of gradient concentration method using final concentrations of 0.1 μM, 1 μM, 10 μM with Meis1 inhibitor 1 (MEISi-1) and Meis1 inhibitor 2 (MEISi-2) mixed into each well in maximum 200 μl DMEM medium, and they were incubated in 5% CO2 and normal O2 level at 37° C. 4 days after the incubation, 10 μl WST1 cell proliferation solution (Boster, AR1159) was added, and after incubation of 4 hours, absorbance measurement was carried out at 450 nm by Thermo Lab system Multiskan Spektrum (ER-G).

[4] = test system: human HSCs from bone marrow or umbilical cord blood; assay: human HSC expansion ex vivo; format: cell-based; settings: human hematopoietic cell culture, in comparison to DMSO control group
Procedure: Human HSC Expansion: The cells obtained from bone marrow or umbilical cord blood were separated by Percoll and mononuclear cells were obtained. They were transferred to the tubes containing HSC medium. HSC medium known as SCF medium was used in the culture of the isolated bone marrow and umbilical cord blood HSCs. […] Following HSC purification, HSCs were seeded into a 96-well plate (Corning, 3799) at 200-300 HSCs per well; and upon adding maximum 200 μl of MEIS inhibitors mixed in SCF medium into each cell, they were incubated in 5% CO2 and normal O2 level at 37° C. for 7-10 days. Then, the number and percentage (frequency) of the HSCs and of the other hematopoietic progenitor cells were determined. The results were compared with the control group treated with DMSO (ER: E).

[5] = test system: HSCs in mouse bone marrow and blood; assay: in vivo proliferation of HSCs with MEIS inhibitors; settings: 0.5 mg/kg to 10 mg/kg, 10 days after administration
Procedure: 5—In Vivo Proliferation of HSCs with MEIS Inhibitors
As an alternative to ex vivo proliferation of HSCs by using small molecules, it was shown that application of MEIS inhibitors directly for in vivo HSC proliferation is also possible. The injected MEIS inhibitors were administered intraperitoneally in the range of 0.5 mg/kg to 10 mg/kg. In order to ensure effective incubation, the inhibitors were administered to the mice in 3 different doses; and 10 days after administration, the amount of the HSCs obtained from the bone marrow of the mice was determined (FIG. 9) (ER: F).

[6] = test system: p21-Luc MEIS reporter (Meis1); assay: in vitro p21 luciferase reporter assay in COS cells; format: cell-based; settings: COS cells, 0.1, 1 and 10 μM, 48 hours
Procedure: 2—Determining Meis1 Inhibitors by In Vitro Luciferase Reporter Assay
MEIS inhibitors were tested by conducting the luciferase reporter assay. It was observed that MEIS protein activated the luciferase reporters containing increasing doses of p21 promoters. pGL2 vectors comprising p21 gene promoter, which is activated by Meis1, were used in the luciferase assays. Therefore, 0.8 μg p21-pGL2, 400 ng Meis1 expression vector pCMVSPORT6-Meis1 (Open BioSystems) and 0.2 μg p CMV-LacZ (internal control) vector were transfected together to the COS cells. 4 hours later, the cells were treated with prototype MEIS inhibitors (at 0.1, 1 and 10 μM concentrations). 6-well plates and lipofectamine were used for transfection. 48 hours later, the cells were lysed, samples were collected and luciferase activity was determined. Reporter system of Promega (Promega Dual-Glo® Luciferase Assay System) was used for this. Luciferase measurements were normalized according to β-gal measurements (measurements were made at 420 nm). Thermo Lab system Lumino scan Ascent device was used for the luciferase measurements. As a result of these experimental studies, the in silico study, which targeted MEIS homeodomain and was conducted in comparison to the other TALE homeodomain, enabled to determine MEIS-specific hits (Experimental Results (ER): ER-A).

[7] = test system: p21, Hif-1alpha (Hif-1α), Hif-2alpha (Hif-2α) genes in the Meis1 pathway; assay: real-time RT-PCR of Meis1 pathway genes in HSCs; format: cell-based; settings: HSCs, 0.1, 1 and 10 μM, 3 days, vs DMSO
Procedure: 3—Testing MEIS Inhibitors by Real-Time RT-PCR
HSCs were prepared for each inhibitor (3 replicates in 6 wells) and cell series containing DMSO were used as control group. For each potential small molecule, assays were conducted at concentrations of 0.1, 1 and 10 μM; and the cells were trypsinized and collected after 3 days and were stored in trizol until RNA isolation was carried out. RNA isolation was performed by using Qiagen in RNeasy mini kit and protocol. cDNA was synthesized from 2 μg RNA by using Invitrogen in Superscript II RT system. Assays were conducted in BioRad CFX 96 Real Time PCR device by using SyberGreen (AppliedBiosystems). GAPDH was used as the control gene and was used for normalizing gene expression by ddCT method. Levels of the p21, Hif-1alpha (Hif-1α), Hif-2alpha (Hif-2α) gene expressions, which are known to be activated by Meis1, were determined and were controlled by DMSO control group (FIG. 3) (ER: B).

Row | Compound | increase in the number of HSCs [1] | effective dose [2] [µM] | cytotoxicity [3] | ALDHBr HSC number increase [4] [times] | CD34+ HSC number increase [4] [times] | CD34+CD133 HSC number increase [4] [times] | CD133+ HSC number increase [4] [times] | HSC number in mouse bone marrow (LSKCD34low cells) [5] | HSC number in the blood (LSKCD150+CD48− cells) [5] | inhibition of p21-Luc MEIS reporter (luciferase activity) [6] | expression of Hif-1alpha (Hif-1α) gene [7] | expression of Hif-2alpha (Hif-2α) gene [7] | expression of p21 gene [7]
1 | Cc1cccc(NC(=O)c2ccc(OCC(=O)NCc3ccccc3)cc2)c1C [MEISi-1, 4-[2-(benzylamino)-2-oxoethoxy]-N-(2,3-dimethylphenyl) benzamide] | up to 10 times | 1 | not cytotoxic | 2 | 2 | 2 | 2 | successfully increased HSC number | successfully increased HSC number | inhibit p21-Luc MEIS reporter in a dose-dependent manner | reduce expression | reduce expression | reduce expression
2 | O=C1C=Cc2ccccc2/C1=C/NNC(=O)c1ccc(O)cc1 [MEISi-2, 4-hydroxy-N′-[(Z)-(2-oxonaphthalen-1-ylidene)methyl] benzohydrazide] | up to 3 times | 1 | not cytotoxic | 2 | 2 | 2 | 2 | successfully increased HSC number | successfully increased HSC number | inhibit p21-Luc MEIS reporter in a dose-dependent manner | reduce expression | reduce expression | reduce expression
